Tests used:
[1] = system: A. actinomycetemcomitans/A. viscosus; test: Growth inhibition (OD610), co-culture; format: cell-based, A. actinomycetemcomitans and A. viscosus
Experimental: (§1) Further characterization was performed on planktonic oral microbes; Streptococcus sobrinus (Cariongenic—strain-SL1[CCM 6070, CNCTC 9/89] (ATCC cat. #33478), Streptococcus gordonii (Arginolytic—strain V288 (ATCC cat. #35105), Actinomyces viscosus) as well late colonizer (Gram −), pathogenic Aggregatibacter actinomycetemcomitans. All microbes were grown in their respective culture media: Streptococcus sobrinus and Streptococcus gordonii in BHI broth (BD, cat #237500), Aggregatibacter actinomycetemcomitans in BHI broth supplemented with 0.5% Yeast Extract (BD, cat #210941) and Actinomyces viscosus in Trypticase Soy Broth (BD, cat #211768) supplemented with 0.5% Yeast Extract (BD, cat #210941). Bacteria were cultured overnight in 37° C., 5% CO2 in approximately 20 ml of the appropriate culture broth. The following day, the OD610 was determined and solutions were diluted to 0.2 for the assay.
(§2) Test samples (Naringin, Naringin:Zinc complex and Naringin+Zinc Acetate (combination)) were prepared as a 100 mM stock solution followed by 2 fold serial dilution in 100% DMSO. Triclosan (positive control) was prepared as a 10% stock in 100% EtOH and 3 fold serial dilutions were done in 100% EtOH. […]
(§3) After approximately 12-13 hours of treatment, the plate was read at 610 nm using an Envision plate reader (PerkinElmer, Waltham, Mass.). The % inhibition relative to control was determined as follows: […]

[2] = system: Aggregatibacter actinomycetemcomitans; test: Growth inhibition (OD610), single culture; format: cell-based; settings: A. actinomycetemcomitans
Experimental: (§4) Single species of Streptococcus gordonii (S. gordonii, S.g) strain V288 (ATCC #35105), Streptococcus sobrinus (S. sobrinus, S.$) strain SL1[CCM 6070, CNCTC 9/89] (ATCC #33478), or Aggregatibacter actinomycetemcomitans were analyzed. Also, a mixed culture containing Actinomyces viscosus (A. viscosus, A.v) strain (ATCC, #43146), Lactobacillus casei (L. casei, L.c) strain (ATCC #334), Streptococcus oralis (S. oralis, S. o) strain (ATCC #35037), Fusobacterium nucleatum (F. nucleatum, F. n) strain (ATCC #10953), and Veilonella parvula (V. parvula, V. p) strain (ATCC #17745) was also analyzed for growth inhibition/toxicity activity. Bacteria were cultured overnight in approximately 20 ml of BHI broth (BD, cat #237500) or maintained in a specialized complex modified BHI II medium in a continuous culture chemostat at 37° C. respectively. The following day, the OD610 were determined and solutions diluted to an OD610 of 0.2 or 0.1 respectively for the assay.
(§5) Triclosan (positive control) was prepared as a 10% stock in 100% EtOH and 3 fold serial dilutions were performed in 100% EtOH. An appropriate amount of the diluted samples was then transferred into a 96 well clear plate such that the resulting final concentration of the test samples ranged from either a 2 mM or 4 mM (highest concentration) to 0.0078 mM or 0.0156 mM (lowest concentration respectively) in 2% DMSO in 100 μl media per well. Triclosan (TCN) ranged from 0.01% to 1.67e-6% in 1% EtOH. For Zinc acetate, in order to mimic the 2:1 molar ratio (ligand:Zinc) in the Naringin:Zinc complex, the final concentration ranged from 0.7 mM to 0.0027 mM for samples with 2 mM as the highest concentration and 1.33 mM to […] for samples with 4 mM as the highest concentration in 2% DMSO. Next, 100 μl of bacterial culture at OD610 0.2 were introduced to the wells with the test samples. The wells were thoroughly mixed and incubated at 37° C. overnight. The plates were read using an Envision plate reader (PerkinElmer, Waltham, Mass.) at 610 nm.
(§6) The IC50 for the complex, Product 5, was determined for Streptococcus gordonii (S. gordonii), Streptococcus sobrinus (S. sobrinus), Aggregatibacter actinomycetemcomitans (A. actinomycetemcomitans), and also for the mixed bacterial culture. […] Triclosan (TCN) was included as a positive control for bacterial inhibition.
as §1
(§7) Triclosan (positive control) was prepared as a 10% stock in 100% EtOH and 3 fold serial dilutions were done in 100% EtOH. […] For Naringin+Zinc combination, while the highest total overall concentration was 2 mM, the exact concentration was Naringin (1.3 mM) and Zinc Acetate (0.7 mM) due to the compositions 2:1 molar ratio. For Zinc Acetate, in order to mimic the 2:1 ratio (ligand:Zinc) composition as in the complex, the final concentration ranged from 0.7 mM to 0.0027 mM in 2% DMSO.
(§8) A 100 μl aliquot of bacterial culture at OD610 0.2 were introduced to the wells with the test samples. The wells were thoroughly mixed and plates incubated overnight in a 37° C. incubator with or without 5% CO2 depending upon the bacterial species.

[3] = system: Streptococcus gordonii; test: Growth inhibition (OD610), single culture; format: cell-based
Experimental: as §4, §5, §6, §1, §7, §8

[4] = system: Streptococcus sobrinus; test: Growth inhibition (OD610), single culture; format: cell-based
Experimental: as §4, §5, §6, §1, §7, §8

[5] = system: planktonic oral bacterial species (S. sobrinus, S. gordonii, A. actinomycetemcomitans, A. viscosus, mixed cultures); test: Growth inhibition, summary statements over the single, co- and mixed cultures tested; format: cell-based, oral bacteria; settings: for inhibition of single species, co-cultures and mixed cultures (in words): concentrations of Tables 7-12
Experimental: as §4, §5, §6, §1, §7, §8

[6] = system: S. gordonii/S. sobrinus; test: Growth inhibition (OD610), co-culture; format: cell-based, S. gordonii and S. sobrinus
Experimental: as §1, §2, §3

[7] = system: S. sobrinus/A. viscosus; test: Growth inhibition (OD610), co-culture; format: cell-based, S. sobrinus and A. viscosus
Experimental: as §1, §2, §3

[8] = system: Actinomyces viscosus; test: Growth inhibition (OD610), single culture; format: cell-based; settings: A. viscosus
Experimental: as §1, §2, §3

[9] = 0.5 mM (combination 0.5 mM total)

SMILES | inhibition at 500 µM [1, 9] [%] | inhibition at 500 µM ([2]; Aggregatibacter actinomycetemcomitans, 0.5 mM (combination 0.325 mM + 0.175 mM, 0.5 mM total)) [%] | inhibition at 500 µM ([3]; Streptococcus gordonii, S. gordonii, 0.5 mM (combination 0.325 mM + 0.175 mM, 0.5 mM total)) [%] | inhibition at 500 µM ([4]; Streptococcus sobrinus, S. sobrinus, 0.5 mM (combination 0.325 mM + 0.175 mM, 0.5 mM total)) [%] | antimicrobial effect on bacterial species tested (in words) ([5]; all concentrations tested, cultured alone or as co-cultures) | inhibition of single species, co-cultures and mixed cultures (in words) [5] | inhibition at 500 µM [6, 9] [%] | inhibition at 500 µM [7, 9] [%] | inhibition at 500 µM ([8]; Actinomyces viscosus, 0.5 mM (combination 0.325 mM + 0.175 mM, 0.5 mM total)) [%] | % Inhibition ([1]; 0.175 mM) [%] | % Inhibition ([2]; 0.175 mM) [%] | % Inhibition ([3]; S. gordonii, 0.175 mM) [%] | IC50 ([3]; Streptococcus gordonii, overnight at 37° C., read-out: IC50) [µM] | % Inhibition ([4]; S. sobrinus, 0.175 mM) [%] | IC50 ([4]; Streptococcus sobrinus, overnight at 37° C., read-out: IC50) [µM] | IC50 range over cultures tested, corresponding ppm ([5]; S. sobrinus, S. gordonii, A. actinomycetemcomitans and mixed chemostat cultures) | IC50 ([5]; S. sobrinus, S. gordonii, A. actinomycetemcomitans and mixed chemostat cultures, read-out: concentration that inhibited 50% of the bacterial growth (IC50), range over cultures tested) [µM] | % Inhibition ([6]; 0.175 mM) [%] | % Inhibition ([7]; 0.175 mM) [%] | % Inhibition ([8]; 0.175 mM) [%]
C[C@@H]1O[C@@H](O[C@H]2[C@H](Oc3cc(O)c4c(c3)O[C@H](c3ccc(O)cc3)CC4=O)O[C@H](CO)[C@@H](O)[C@@H]2O)[C@H](O)[C@H](O)[C@H]1O [Naringin] | -0.03 ± 2.02 | 5.01 ± 1.69 | 0.96 ± 2.82 | -2.64 ± 2.54 | did not show detectable antimicrobial effect | little to no detectable inhibition | -6.84 ± 1.19 | -3.79 ± 7.15 | -3.5 ± 4.1 |  |  |  |  |  |  |  |  |  |  | 
CC(=O)[O-].CC(=O)[O-].[Zn+2] [Zinc Acetate alone, Zinc (II) Acetate] |  |  |  |  |  | little to no detectable inhibition |  |  |  | 4.13 ± 6.89 | 29.24 ± 0.42 | 13.51 ± 10.18 | 300 ± 20 | −1.05 ± 3.10 | 290 ± 40 | 45.9-317.5 ppm | 250 to 1730 | 1.55 ± 0.24 | 2.46 ± 6.58 | −1.84 ± 5.86

Reference: patent publication US10548829B2, “Oral care compositions and methods of use” (priority 2016, dated 2020)
